Legend:
[1] = Lipophilicity determination by gradient HPLC (log k′g); assay type: physicochemical; details: HPLC gradient 1, RP-18, triethylammonium phosphate buffer pH 6.5 / methanol (ion pair chromatography)
Method: Gradient 1: Stationary phase: Polygosil 60-10, RP-18; 250×4 mm (Macherey & Nagel, DOren, Germany). Mobile phase A: 10 ml 1 M triethylammonium phosphate buffer (TEAP), pH 6.5+990 ml methanol. Mobile phase B: 10 ml 1 M TEAP, pH 6.5+990 ml H2O. Time program: 0 min: 100% B; 60 min: 100% A; 65 min: 100% A; 70 min: 100% B; 90 min: 100% B. Flow rate: 1.0 ml/min.
The octanol/water coefficient Log P is the commonly accepted indicator for the expected property of a given chemical entity to pass cellular membranes by passive diffusion. However, its practical determination for polar compounds such as multiply charged nucleotides is difficult in reality. Often, the information about membrane permeability must be received by fragmental analysis or other calculations.
Given this fact, an established HPLC method is used here, which is based on the measurement of retention on a reversed phase column^7. In contrast to Log P, this method yields the indicator log k′g, which allows for a ranking of different nucleotides of the same charge according to their lipophilicity.
Since CDNs are twofold negatively charged molecules which are only very insufficiently retarded on a reversed phase HPLC column, the determinations were performed in presence of the lipophilic triethylammonium cation (ion pair chromatography).
According to the established method^7 HPLC gradient 1 was used for the determination of lipophilicity.

THP1 Dual KO STING cells = test: SEAP reporter assay in THP1 Dual KO STING control cells; assay type: cell-based, human; details: 40 μg/ml, 24 hours (FIG. 2)
Method: (§1) Legend for Synthesis 5: THP1-Blue™ cells ((THP1-ISG); InvivoGen, catalogue number: thp-isg; concentration: 5×10^5/ml, 180 μl/well (96-well-plate) and THP1 Dual™ KO STING cells ((STING KO) InvivoGen, catalogue number: thpd-kostg; concentration: 5×10^5/ml, 180 μl/well (96-well-plate) were incubated with inventive CDNs (concentration 40 μg/ml each) in medium (RPMI-1640, 2 mM L-glutamine, 1.5 g/I sodium bicarbonate, 4.5 g/I glucose, 10 mM HEPES, 1 mM sodium pyruvate, 10% FCS, 100 μg/mL Zeocin™, 110 μg/mL Normocin™, Pen-Strep 50 U/mL) for 24 hours at 37° C. in 5% CO2. For incubations with THP1 Dual™ KO STING cells, 10 μg/ml of blasticidin were added to the medium. Quantification was performed with SEAP detection reagent QUANTI-Blue™ (InvivoGen; catalogue number: rep-qb1; incubation time: 15 min at 37° C. in 5% CO2) by optical density (OD) determination at 625 nm.

STING signalling pathway = test: Interferon-β promoter SEAP reporter assay in THP1-Blue cells; assay type: cell-based, human; details: 0, 10, 20, 40 μg/ml, 24 hours
Method: Legend for Synthesis 4: THP1-Blue™ cells ((THP1-ISG); InvivoGen, catalogue number: thp-isg; concentration: 5×10^5/ml, 180 μl/well (96-well-plate) were incubated with inventive CDNs in different concentrations (0 μg/ml; 10 μg/ml; 20 μg/ml; 40 μg/ml) in medium (RPMI-1640, 2 mM L-glutamine, 1.5 g/I sodium bicarbonate, 4.5 g/I glucose, 10 mM HEPES, 1 mM sodium pyruvate, 10% FCS, 100 μg/ml Zeocin™, 110 μg/ml Normocin™, Pen-Strep 50 U/ml) for 24 hours at 37° C. in 5% CO2. The quantification was performed with SEAP detection reagent QUANTI-Blue™ (InvivoGen; catalogue number: rep-qb1; incubation time: 30 min at 37° C. in 5% CO2) by optical density (OD) determination at 625 nm.
as §1
Cell line: THP1-Blue™ cells (InvivoGen, catalogue number: thp-isg) are derived from THP1 cells. THP1-Blue™ cells in a cell culture dish are stimulated by the administration of a CDN according to the invention or a buffer control.
In these genetically modified cells, the gene for secreted embryonic alkaline phosphatase (SEAP) is under the control of an interferon-β promoter.
After stimulation of the cells with an inventive CDN, the supernatant of the cell culture was removed and the enzymatic activity of SEAP was measured photometrically in a colorimetric assay by measuring the extinction at 625 nm (optical density; OD 625 nm).
Administration of an inventive CDN induces an increase in the activity of SEAP, which is a measure of the activity of the STING signalling pathway.

| log k′g ([1]; listed as 29, MI2) | log k′g ([1]; listed as 98, MI1) | log k′g [1] | Compound | effect of elevated OD at 625 nm in STING knock out cells (THP1 Dual KO STING cells) | SEAP activity, elevated OD at 625 nm, concentration-dependent (STING signalling pathway) |
| --- | --- | --- | --- | --- | --- |
| 2.403 | – | – | Nc1nc2c(ncn2[C@@H]2O[C@@H]3COP(=O)(S)OC4C(O)[C@H](n5cnc6cc(Cl)c(Cl)cc65)O[C@@H]4COP(=O)(S)OC2C3O)c(=O)[nH]1 (single isomer, unassigned) [Compound 29, MI2, Cyclic (guanosine-(2′→5′)-monophosphorothioate-5,6-dichlorobenzimidazole riboside-(3′→5′)-monophosphorothioate)] | no longer observed | positive |
| – | 1.524 | – | Nc1ncnc2c1ncn2[C@@H]1O[C@@H]2COP(=O)(S)OC3C(O)[C@@H](COP(=O)(S)OC2C1O)O[C@H]3n1cnc2ccccc21 (single isomer, unassigned) [Compound 98, MI1, Cyclic (adenosine-(3′→5′)-monophosphorothioate-benzimidazole riboside-(2′→5′)-monophosphorothioate)] | no longer observed | positive |
| – | – | 1.322 | Nc1ncnc2c1ncn2[C@@H]1O[C@@H]2COP(=O)(O)OC3C(O)[C@H](n4cnc5ccccc54)O[C@@H]3COP(=O)(O)OC2C1F (stereo partly drawn) [Compound 79, cyclic (2′-fluoro-2′-deoxyadenosine-(3′ −> 5′)-monophosphate-benzimidazole riboside-(3′ −> 5′)-monophosphate)] | no longer observed | positive |
